Results from publication PMC12361874, “Common Food Additives Inhibit Carbonic Anhydrase Activity” (Journal of Biochemical and Molecular Toxicology, 2025).
Several values for one entry are separate records, joined by “and”; a condition that tells them apart may be missing. Equal entries are not always repeated. Where two headings read alike, the source gives them in different places. Where a SMILES comes first, the peptide text is derived from it.

Assays:
[1] = set-up: method as in Joint FAO/WHO Expert Committee on Food Additives; settings: NL: not limited; ref Joint FAO/WHO Expert Committee on Food Additives; cited from earlier work
[2] = target: T1, bovine carbonic anhydrase (bCA) (Bos taurus, UniProt P00921); assay: Inhibition of esterase activity (p-nitrophenyl acetate) of purified bCA; type: biochemical; settings: for IC50 / IC50 bCA: esterase activity method, saturated substrate concentration
T1 construct: from tissue; host or cells: bovine blood hemolysate (erythrocytes are inferred)
T1 sequence (P00921 whole entry): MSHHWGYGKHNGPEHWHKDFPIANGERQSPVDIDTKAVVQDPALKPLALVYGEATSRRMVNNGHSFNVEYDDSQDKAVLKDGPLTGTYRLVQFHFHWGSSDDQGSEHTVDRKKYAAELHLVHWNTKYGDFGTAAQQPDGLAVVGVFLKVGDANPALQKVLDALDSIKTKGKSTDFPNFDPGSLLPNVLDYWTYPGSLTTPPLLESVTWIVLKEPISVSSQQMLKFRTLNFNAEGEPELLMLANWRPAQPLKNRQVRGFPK
Procedure: (§1) The human erythrocyte carbonic anhydrase isozymes hCAI and hCAII were eluted with 50 mM Na2HPO4 ‐ 1 M NaCl, pH: 6.3, and 0.1 M CH3COONa ‐ 0.5 M NaClO4, pH: 5.6, respectively (flow rate: 20 mL/h, fraction volume: 5 mL). The bovine enzyme was eluted with 0.1 M CH3COONa ‐ 0.5 M NaClO4 (pH: 5.6) buffer system. The protein elution by affinity column chromatography was monitored by absorbance measurement at 280 nm.
(§2) Carbonic anhydrase activity was also assayed by following esterase activity according to the method defined by Verpoorte et al. with slight modification. The enzyme hydrolyzes the substrate, p‐nitrophenyl acetate, to p‐nitrophenol or p‐nitrophenolate. The change in absorbance was measured spectrophotometrically at room temperature for a period of 3 min. The reaction mixture contained 0.5 mL of 0.05 M Tris–SO4 buffer (pH: 7.4), 0.75 mL of p‐NPA (3 mM), 0.1 mL of distilled water, and 0.15 mL of the enzyme solution (final volume 1.5 mL). […] All measurements were performed as triplicates. The method was used to determine the inhibitory activities of the food additives studied.
(§3) To determine the effect of all samples on bCA, hCAI, and hCAII isoenzymes esterase activity at saturated substrate concentration, activity (%) ‐ inhibitor concentration [I] graphs were plotted.

[3] = target: T2, hCAI isoenzyme purified from human erythrocytes (Homo sapiens, UniProt P00915); assay: Inhibition of esterase activity (p-nitrophenyl acetate) of purified hCAI; IC50, Ki, inhibition type; type: biochemical
T2 construct: hCAI isoenzyme purified from human erythrocytes; from tissue; host or cells: human erythrocytes
T2 sequence (P00915 whole entry): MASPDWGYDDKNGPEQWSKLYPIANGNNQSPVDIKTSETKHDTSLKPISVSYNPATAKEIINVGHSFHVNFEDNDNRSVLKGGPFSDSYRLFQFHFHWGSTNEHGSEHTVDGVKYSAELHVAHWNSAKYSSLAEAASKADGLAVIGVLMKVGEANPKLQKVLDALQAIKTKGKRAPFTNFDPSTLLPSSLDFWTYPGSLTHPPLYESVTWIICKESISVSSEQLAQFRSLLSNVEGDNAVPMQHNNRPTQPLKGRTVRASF
Procedure: as §1, §2, §3
Lineweaver–Burk lines were drawn for each inhibitor concentration. In the graph equation, Ki values were calculated by using Vmax=V^I max(1 + [I]/Ki) formula for semi‐competitive and Noncompetitive inhibition.

[4] = target: T3, hCAII isoenzyme purified from human erythrocytes (Homo sapiens, UniProt P00918); assay: Inhibition of esterase activity (p-nitrophenyl acetate) of purified hCAII; type: biochemical; settings: esterase activity method, saturated substrate concentration
T3 construct: […]; from tissue; host or cells: human erythrocytes
Procedure: as §1, §2, §3

hCAI [5] = test system: hCAI; set-up: method as in PMID 27451209; settings: in vitro; cited from earlier work
[6] = test system: glandular stomach, colon and lungs of mice; set-up: method as in PMID 20686341; settings: cited from earlier work
hCAI [7] = settings: read-out: IC50(hCAI); cited from earlier work
hCAII [8] = settings: read-out: IC50(hCAII); cited from earlier work
hCAII [9] = settings: cited from earlier work
[10] = esterase activity method, saturated substrate concentration, read-out: IC50 hCAI

IC50 [3, 10]	IC50 [4]	SMILES	ADI (acceptable daily intake) [1]	IC50 [2]	also measured
–	–	CC1=CC(=O)NS(=O)(=O)O1 [Acesulfame K]	15 mg/kg	2350.5 ± 0.1 µM	inhibition at 2000 µg/mL ([2]; at 2 mg/mL concentration): 13%
781.65 ± 0.06 µM	504.04 ± 0.02 µM	COc1cc(S(=O)(=O)[O-])c(C)cc1N=Nc1c(O)ccc2cc(S(=O)(=O)[O-])ccc12.[Na+].[Na+] [Allura Red AC]	7 mg/kg	762.12 ± 0.12 µM	IC50 (hCAI [5]): 565 µM; DNA damage in in vivo comet assay [6]: DNA damage
496.04 ± 0.04 µM	603.11 ± 0.11 µM	O=S(=O)([O-])c1ccc2c(N=Nc3ccc(S(=O)(=O)[O-])c4ccccc34)c(O)c(S(=O)(=O)[O-])cc2c1.[Na+].[Na+].[Na+] [Amaranth]	0.5 mg/kg	296.06 ± 0.06 µM	–
1834.1 ± 0.1 µM	2160.1 ± 0.07 µM	O=C1O[C@H]([C@@H](O)CO)C(O)=C1O [Ascorbic Acid, Ascorbic acid]	–	993.67 ± 0.03 µM	–
2816.9 ± 0.03 µM	2935.8 ± 0.02 µM	COC(=O)[C@H](Cc1ccccc1)NC(=O)[C@@H](N)CC(=O)O [Aspartame] (HELM PEPTIDE1{D.F.[CO[*:1]]}$$$$V2.0)	40 mg/kg	–	IC50 bCA [2]: inactive; IC50 bCA ([2]; listed as aspartame): no effect
91.14 ± 0.09 µM	502.45 ± 0.03 µM	CC(=O)Nc1ccc(S(=O)(=O)[O-])c2cc(S(=O)(=O)[O-])c(N=Nc3ccc(N=Nc4ccc(S(=O)(=O)[O-])cc4)c4ccc(S(=O)(=O)[O-])cc34)c(O)c12.[Na+].[Na+].[Na+].[Na+] [Brilliant Black BN]	1 mg/kg	153.32 ± 0.04 µM	–
462.89 ± 0.1 µM	104.29 ± 0.09 µM	Cc1cc(C(C)(C)C)c(O)c(C(C)(C)C)c1 [Butylated Hydroxytoluene (BHT), Butylated hydroxytoluene (BHT)]	0.3 mg/kg	512.85 ± 0.05 µM	–
684 µM	581.07 ± 0.03 µM	Cc1c(C(=O)O)c(O)cc2c1C(=O)c1c(O)c([C@@H]3O[C@H](CO)[C@@H](O)[C@H](O)[C@H]3O)c(O)c(O)c1C2=O [Carminic Acid, Carminic acid]	2.5 mg/kg	586.92 ± 0.01 µM	–
1799.4 ± 0.03 µM	1241.9 ± 0.07 µM	O=C(O)CC(O)(CC(=O)O)C(=O)O [Citric Acid]	–	616.9 ± 0.1 µM	–
–	–	COc1cc(/C=C/C(=O)CC(=O)/C=C/c2ccc(O)c(OC)c2)ccc1O [Curcumin]	–	–	IC50 (hCAI [7]): 5.63 µM; IC50 (hCAII [8]): 4.81 µM
19.37 ± 0.04 µM	5 µM and 5.22 µM	O=C([O-])c1ccccc1-c1c2cc(I)c(=O)c(I)c-2oc2c(I)c([O-])c(I)cc12.[Na+].[Na+] [Erythrosine B]	0.1 mg/kg	11 µM and 10.8 µM	Type of inhibition ([3]; Lineweaver–Burk): Noncompetitive; IC50 ([3]; Table 3, read-out: IC50 (hCAI esterase activity)): 19 µM; Ki ([3]; [I] 0.015 mM, Lineweaver–Burk, read-out: Ki values): 2.9 µM; Ki ([3]; [I] 0.019 mM, Lineweaver–Burk, read-out: Ki values): 1.7 µM; Ki ([3]; [I] 0.023 mM, Lineweaver–Burk, read-out: Ki values): 3.9 µM; Ki ([3]; three inhibitor concentrations, five substrate concentrations (0.15–0.75 mM), read-out: Average Ki): 2.8 µM
1018.6 ± 0.04 µM	242.03 ± 0.03 µM	O=C1/C(=C2\Nc3ccc(S(=O)(=O)[O-])cc3C2=O)Nc2ccc(S(=O)(=O)[O-])cc21.[Na+].[Na+] [Indigo Carmine]	5 mg/kg	141.59 ± 0.07 µM	–
316.98 ± 0.02 µM	396.74 ± 0.03 µM	CCN(CC)c1ccc(C(=C2C=CC(=[N+](CC)CC)C=C2)c2cc(O)c(S(=O)(=O)[O-])cc2S(=O)(=O)[O-])cc1.CCN(CC)c1ccc(C(=C2C=CC(=[N+](CC)CC)C=C2)c2cc(O)c(S(=O)(=O)[O-])cc2S(=O)(=O)[O-])cc1.[Ca+2] [Patent Blue V]	5 mg/kg	267.46 ± 0.09 µM	–
678.27 ± 0.03 µM	617.09 ± 0.01 µM	O=S(=O)([O-])c1cc(S(=O)(=O)[O-])c2c(N=Nc3ccc(S(=O)(=O)[O-])c4ccccc34)c(O)ccc2c1.[Na+].[Na+].[Na+] [Ponceau 4R, Ponceau 4 R]	0.7 mg/kg	239.84 ± 0.04 µM	–
2049.1 ± 0.1 µM	–	O=C1NS(=O)(=O)c2ccccc21 [Saccharin]	5 mg/kg	–	inhibition against hCAII (hCAII [9]): low micromolar inhibition
4566.2 ± 0.06 µM	3475.1 ± 0.1 µM	C/C=C/C=C/C(=O)O [Sorbic Acid, Sorbic acid]	25 mg/kg	1801.4 ± 0.04 µM	–
350.05 ± 0.03 µM	488.63 ± 0.07 µM	O=S(=O)([O-])c1ccc(N=Nc2c(O)ccc3cc(S(=O)(=O)[O-])ccc23)cc1.[Na+].[Na+] [Sunset Yellow FCF]	4 mg/kg	680.82 ± 0.05 µM	–
652.25 ± 0.05 µM	621.83 ± 0.05 µM	O=C([O-])C1=NN(c2ccc(S(=O)(=O)[O-])cc2)C(=O)C1N=Nc1ccc(S(=O)(=O)[O-])cc1.[Na+].[Na+].[Na+] (centres unmarked) [Tartrazine]	7.5 mg/kg	659.67 ± 0.07 µM	–

SMILES	IC50 [3, 10]	IC50 [4]	ADI (acceptable daily intake) [1]	IC50 [2]	also measured
O=C(O)c1ccccc1 [Benzoic Acid, Benzoic acid]	2784 ± 0.06 µM	2988.8 ± 0.06 µM	5 mg/kg	1850.7 ± 0.05 µM	–
CCN(Cc1cccc(S(=O)(=O)[O-])c1)c1ccc(C(=C2C=CC(=[N+](CC)Cc3cccc(S(=O)(=O)[O-])c3)C=C2)c2ccccc2S(=O)(=O)[O-])cc1.[Na+].[Na+] [Brilliant Blue FCF]	208.04 ± 0.03 µM	364.3 ± 0.09 µM	6 mg/kg	136.26 ± 0.04 µM	–
